Results taken from patent US20260014119A1, “EMOPAMIL-BINDING PROTEIN INHIBITORS AND USES THEREOF” (BIOGEN MA INC., priority 2022, published 2026).

Target: T1, EBP (Homo sapiens, UniProt Q15125)
T1 construct: HEK293T cells were utilized as the source of EBP enzyme; endogenous in cells; host or cells: HEK293T
Assay: EBP Functional Assay (EBP immunoaffinity LC-MS assay)
Format: biochemical
Conditions: EBP enzyme from HEK293T cells; 30 min with inhibitor, then zymosterol-d5 at 37° C. for 4 h; percent conversion by LC-APCI MRM MS
Description: The EBP immunoaffinity (IA) LC-MS assay measures the potency of small molecule inhibitors of EBP by quantifying their concentration-dependent changes in the enzyme's substrate and product using liquid chromatography atmospheric pressure chemical ionization multiple reaction monitoring mass spectrometry (LC-APCI MRM MS). HEK293T cells were utilized as the source of EBP enzyme. The enzyme was incubated with the small molecule inhibitors at variable concentrations for 30 min. Deuterated form of EBP substrate, zymosterol-d5 (Avanti Polar Lipids, Cat #700068P-1 mg), was then added and the plate was incubated at 37° C. for 4 h. Finally, the sterol isomers were extracted and injected to LC-APCI MRM MS. MRM transition used for the quantification for both zymosterol and […] (substrate and product of EBP enzymatic reaction, respectively) is 372.3-203.2, CE 30 and DP 80 in positive ion mode. Percent conversion of the zymosterol-d5 to dehydrolathosterol-d5 was used to derive IC50 curves. Tasin-1 (1′-[(4-Methoxyphenyl)sulfonyl]-4-methyl-1,4′-bipiperidine, CAS 792927-06-1) was used as the reference small molecule inhibitor.
Percent conversion versus the compound concentration data were fit to the following 4-parameter logistic model to generate IC50 curves: […]

T1 sequence (Q15125 whole entry): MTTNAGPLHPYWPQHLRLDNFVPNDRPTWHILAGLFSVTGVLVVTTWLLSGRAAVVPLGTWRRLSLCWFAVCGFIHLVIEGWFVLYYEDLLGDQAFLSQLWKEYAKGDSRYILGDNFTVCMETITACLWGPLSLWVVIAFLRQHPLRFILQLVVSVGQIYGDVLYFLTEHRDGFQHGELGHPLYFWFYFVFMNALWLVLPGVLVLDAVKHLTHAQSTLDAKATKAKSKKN

**Q.** Which IC50 does the source give for `O=S(=O)(c1cc(F)cc(F)c1)N1C[C@H]2CN(C3CCOCC3)C[C@H]2C1` [Example 39, (3aR,6aS)-2-((3,5-Difluorophenyl)sulfonyl)-5-(tetrahydro-2H-pyran-4-yl)octahydropyrrolo[3,4-c]pyrrole] here?
**A.** 100 to 500 nM

**Q.** For `Cc1nc(C(F)(F)F)ccc1S(=O)(=O)N1C[C@H]2CN(C3CCOCC3)C[C@@H]2C1` [Example 45, (3aR,6aR)-2-((2-Methyl-6-(trifluoromethyl)pyridin-3-yl)sulfonyl)-5-(tetrahydro-2H-pyran-4-yl)octahydropyrrolo[3,4-c]pyrrole], which IC50 is on record?
**A.** 100 to 500 nM

**Q.** `Cn1nc(C(F)(F)F)cc1S(=O)(=O)N1C[C@H]2CN(C3CCOCC3)C[C@@H]2C1` [Example 46, (3aR,6aR)-2-((1-Methyl-3-(trifluoromethyl)-1H-pyrazol-5-yl)sulfonyl)-5-(tetrahydro-2H-pyran-4-yl)octahydropyrrolo[3,4-c]pyrrole] was tested. Which IC50 did it give?
**A.** 100 to 500 nM

**Q.** With `Cc1cc(S(=O)(=O)N2C[C@H]3CN(C4CCOCC4)C[C@H]3C2)n(C)n1` [Example 49, Rac-(3aR,6aS)-2-((1,3-dimethyl-1H-pyrazol-5-yl)sulfonyl)-5-(tetrahydro-2H-pyran-4-yl)octahydropyrrolo[3,4-c]pyrrole] as the compound, how does the IC50 read?
**A.** > 500 nM

**Q.** For `Cc1nc(C(F)(F)F)nc(C)c1S(=O)(=O)N1C[C@H]2CN(C3CCOCC3)C[C@@H]2C1` [Example 60, (3aR,6aR)-2-((4,6-dimethyl-2-(trifluoromethyl)pyrimidin-5-yl)sulfonyl)-5-(tetrahydro-2H-pyran-4-yl)octahydropyrrolo[3,4-c]pyrrole], which IC50 is on record?
**A.** < 100 nM

**Q.** How did the IC50 turn out when `Cc1nc(C(F)(F)F)nc(C)c1S(=O)(=O)N1C[C@H]2CN(C3CC4(COC4)C3)C[C@@H]2C1` [Example 61, (3aR,6aR)-2-((4,6-dimethyl-2-(trifluoromethyl)pyrimidin-5-yl)sulfonyl)-5-(2-oxaspiro[3.3]heptan-6-yl)octahydropyrrolo[3,4-c]pyrrole] was run?
**A.** < 100 nM

**Q.** How did the IC50 turn out when `Cc1nc(C(F)(F)F)nc(C)c1S(=O)(=O)N1C[C@H]2CN(CC3CCOCC3)C[C@@H]2C1` [Example 62, (3aR,6aR)-2-((4,6-dimethyl-2-(trifluoromethyl)pyrimidin-5-yl)sulfonyl)-5-((tetrahydro-2H-pyran-4-yl)methyl)octahydropyrrolo[3,4-c]pyrrole] was run?
**A.** < 100 nM
